Data: US9428499B2, “Heterocyclyl compounds as MEK inhibitors” (LUPIN LIMITED, priority 2012, dated 2016)
Read-outs that look alike come from different tables or passages of the source.

What was measured:
[1] = tested on: MEK phosphorylation (S218 and S222); assay: Analysis of B-Raf-mediated MEK phosphorylation (Alphascreen SureFire Phospho-MEK); format: cell-based, human; conditions: read-out: % Inhibition of MEK phosphorylation, 1 h
Experimental: This assay was carried out with human melanoma cells. Cells were treated for 1 h with various concentrations of test compounds. MEK phosphorylation (S218 and S222) analysis was performed using the Alphascreen SureFire Phospho-MEK Kit (Perkin Elmer), by following the manufacturer's instructions. % inhibition of […] phosphorylation was determined as: 100−{(RFU test−RFU lysis buffer control)/(RFU vehicle treated control−RFU lysis buffer control)}×100.

ERK phosphorylation = assay: Analysis of ERK phosphorylation (Alphascreen SureFire Phospho-ERK 1/2); format: cell-based, human and mouse; conditions: read-out: Minimum concentration (nM) required for ≧80% inhibition of pERK
Procedure, shortened: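 Human melanoma and human and mouse colon cancer cells were exposed to compounds for 1 h. Phospho-ERK1/2 was read by AlphaScreen SureFire. Percent inhibition was calculated from RFU relative to vehicle-treated and lysis-buffer controls.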

[2] = 1 nM, human melanoma cells, read-out: % Inhibition of MBK phosphorylation
[3] = 10 nM, human melanoma cells, read-out: % Inhibition of MBK phosphorylation
[4] = 100 nM, human melanoma cells, read-out: % Inhibition of MBK phosphorylation
[5] = cells treated for 1 h, human melanoma cells, human and mouse colon cancer cells

Row | SMILES | inhibition at 0.001 µM [1, 2] | inhibition at 0.01 µM [1, 3] | inhibition at 0.1 µM [1, 4] | IC80 (ERK phosphorylation; [5]) | inhibition at 0.001 µM ([1]; Homo sapiens) | inhibition at 0.01 µM ([1]; Homo sapiens) | inhibition at 0.1 µM ([1]; Homo sapiens) | IC80 (ERK phosphorylation; 1 h)
1 | Cc1c(=O)n(C)c(Nc2ccc(I)cc2F)c2c(=O)n(C3CC3)c(=O)n(-c3cccc(C(=O)NC4CC4)c3)c12 [Compound 37, N-cyclopropyl-3-(3-cyclopropyl-5-((2-fluoro-4-iodophenyl)amino)-6,8-dimethyl-2,4,7-trioxo-3,4,6,7-tetrahydropyrido[4,3-d]pyrimidin-1(2H)-yl)benzamide] | 54.7% | 85.9% | 92.4% | 1 to 3 nM |  |  |  | 
2 | Cc1c(=O)n(C)c(Nc2ccc(I)cc2F)c2c(=O)n(C)c(=O)n(-c3cccc(OCC(N)=O)c3)c12 [Compound 57, 2-(3-(5-((2-fluoro-4-iodophenyl)amino)-3,6,8-trimethyl-2,4,7-trioxo-3,4,6,7-tetrahydropyrido[4,3-d]pyrimidin-1(2H)-yl)phenoxy)acetamide] | 63.3% | 76.4% | 83% | 1 to 3 nM |  |  |  | 
3 | Cc1c(=O)n(C)c(Nc2ccc(I)cc2F)c2c(=O)[nH]c(=O)n(-c3cccc(C4(C(N)=O)CC4)c3)c12 [Compound 77, 1-(3-(5-((2-fluoro-4-iodophenyl)amino)-6,8-dimethyl-2,4,7-trioxo-3,4,6,7-tetra hydropyrido[4,3-d]pyrimidin-1(2H)-yl)phenyl)cyclopropanecarboxamide] |  |  |  |  | 49% | 67.8% | 85.5% | 0.1 to 0.9 nM
4 | Cc1c(=O)n(C)c(Nc2ccc(I)cc2F)c2c(=O)n(C3CC3)c(=O)n(-c3cccc(C4(C(N)=O)CC4)c3)c12 [Compound 78, 1-(3-(3-cyclopropyl-5-((2-fluoro-4-iodophenyl)amino)-6,8-dimethyl-2,4,7-trioxo-3,4,6,7-tetrahydropyrido[4,3-d]pyrimidin-1(2H)-yl)phenyl)cyclopropanecarboxamide] | 42.6% | 56.7% | 75.4% | 0.1 to 0.9 nM |  |  |  | 
